Measured values published in ChEMBL document CHEMBL1255463, “Attenuation of colistin bactericidal activity by high inoculum of Pseudomonas aeruginosa characterized by a new mechanism-based population pharmacodynamic model” (Antimicrob Agents Chemother, 2010).
Active and inactive are the calls of the source. No cut-off for these calls is given here.

Columns and labels:
Format in all cases: functional, organism-based
[1] = test system: Pseudomonas aeruginosa; assay: Antimicrobial activity against 10^8 CFU/ml Pseudomonas aeruginosa URMC2 after 24 hrs by time-kill assay
[2] = test system: Pseudomonas aeruginosa; assay: Antimicrobial activity against 10^6 CFU/ml Pseudomonas aeruginosa PAO1 after 24 hrs by time-kill assay
[3] = test system: Pseudomonas aeruginosa; assay: Antimicrobial activity against 10^8 CFU/ml Pseudomonas aeruginosa URMC1 after 24 hrs by time-kill assay
[4] = test system: Pseudomonas aeruginosa; assay: Antimicrobial activity against 10^9 CFU/ml Pseudomonas aeruginosa URMC1 after 24 hrs by time-kill assay
[5] = test system: Pseudomonas aeruginosa; assay: Antimicrobial activity against 10^9 CFU/ml Pseudomonas aeruginosa URMC2 after 24 hrs by time-kill assay
[6] = test system: Pseudomonas aeruginosa; assay: Antimicrobial activity against 10^6 CFU/ml Pseudomonas aeruginosa URMC2 after 24 hrs by time-kill assay
[7] = test system: Pseudomonas aeruginosa; assay: Antimicrobial activity against 10^9 CFU/ml Pseudomonas aeruginosa PAO1 after 24 hrs by time-kill assay
[8] = test system: Pseudomonas aeruginosa; assay: Antimicrobial activity against 10^8 CFU/ml Pseudomonas aeruginosa PAO1 after 24 hrs by time-kill assay
[9] = test system: Pseudomonas aeruginosa; assay: Antimicrobial activity against 10^6 CFU/ml Pseudomonas aeruginosa URMC1 after 24 hrs by time-kill assay
[10] = test system: Pseudomonas aeruginosa; assay: Bactericidal activity against 10^6 CFU/ml Pseudomonas aeruginosa URMC1 at >= 16 times MIC up to 30 mins by time-kill assay
[11] = test system: Pseudomonas aeruginosa; assay: Bactericidal activity against 10^6 CFU/ml Pseudomonas aeruginosa URMC2 at 1 to 4 times MIC up to 1 hr by time-kill assay
[12] = test system: Pseudomonas aeruginosa; assay: Antimicrobial activity against 10^6 CFU/ml Pseudomonas aeruginosa PAO1 at 2 to 16 mg/L after 24 hrs by time-kill assay
[13] = test system: Pseudomonas aeruginosa; assay: Bactericidal activity against 10^6 CFU/ml Pseudomonas aeruginosa URMC2 at >= 16 times MIC up to 30 mins by time-kill assay
[14] = test system: Pseudomonas aeruginosa; assay: Bactericidal activity against 10^6 CFU/ml Pseudomonas aeruginosa URMC1 at 1 to 4 times MIC up to 1 hr by time-kill assay
[15] = test system: Pseudomonas aeruginosa; assay: Antimicrobial activity against 10^9.4 CFU/ml Pseudomonas aeruginosa PAO1 at 64 mg/L after 24 hrs by time-kill assay
[16] = test system: Pseudomonas aeruginosa; assay: Antimicrobial activity against Pseudomonas aeruginosa assessed as destabilization of bacterial outer membrane by receptor occupancy assay
[17] = test system: Pseudomonas aeruginosa; assay: Antimicrobial activity against 10^9 CFU/ml Pseudomonas aeruginosa PAO1 at 4 to 128 mg/L after 24 hrs by time-kill assay
[18] = test system: Pseudomonas aeruginosa; assay: Antimicrobial activity against 10^9.4 CFU/ml Pseudomonas aeruginosa PAO1 at 16 mg/L after 24 hrs by time-kill assay
[19] = test system: Pseudomonas aeruginosa; assay: Bactericidal activity against 10^6 CFU/ml Pseudomonas aeruginosa PAO1 at >= 16 times MIC up to 30 mins by time-kill assay
[20] = test system: Pseudomonas aeruginosa; assay: Antimicrobial activity against 10^9 CFU/ml Pseudomonas aeruginosa PAO1 after 8 to 12 hrs by time-kill assay
[21] = test system: Pseudomonas aeruginosa; assay: Antimicrobial activity against 10^9.4 CFU/ml Pseudomonas aeruginosa PAO1 at 64 mg/L after 0.75 hrs by time-kill assay
[22] = test system: Pseudomonas aeruginosa; assay: Bactericidal activity against 10^6 CFU/ml Pseudomonas aeruginosa PAO1 at 1 to 4 times MIC up to 1 hr by time-kill assay
[23] = test system: Pseudomonas aeruginosa; assay: Antimicrobial activity against 10^8 CFU/ml Pseudomonas aeruginosa PAO1 at 4 to 32 mg/L after 24 hrs by time-kill assay
[24] = test system: Pseudomonas aeruginosa; assay: Antimicrobial activity against 10^9.4 CFU/ml Pseudomonas aeruginosa PAO1 at 16 mg/L after 0.75 hrs by time-kill assay

COLISTIN [listing 1 of 2 here]
EC50 [1]: 2.56 µg/mL
EC50 [2]: 0.777 µg/mL
EC50 [3]: 2.69 µg/mL
EC50 [4]: 4.62 µg/mL
EC50 [5]: 3.5 µg/mL
EC50 [6]: 1.15 µg/mL
EC50 [7]: 6.22 µg/mL
EC50 [8]: 1.49 µg/mL
EC50 [9]: 0.736 µg/mL

COLISTIN [listing 2 of 2 here]
Activity [10]: Active
Activity [11]: Active
Activity [2]: Dose-dependent effect
Activity [12]: inactive
Activity [13]: Active
Activity [14]: Active
Activity [6]: Dose-dependent effect
log10CFU/ml [15]: > 5
Activity [16]: 53.7%
Activity [17]: inactive
log10CFU/ml [18]: 5
Activity [19]: Active
Activity [20]: inactive
log10CFU/ml [21]: > 5
Activity [22]: Active
Activity [23]: inactive
Activity [9]: Dose-dependent effect
log10CFU/ml [24]: > 5
